# “Also recorded” adds a separate entry of the source.
# How the values were obtained:
# [1] = test system: human ovarian carcinoma A2780 drug sensitive cell line; test: In vitro cytotoxicity assay (XTT), A2780; type: cell-based
# Description: (§1) The A2780/DDP cell line is reported to be resistant through enhanced DNA repair mechanisms and elevated GSH/GST levels. Cells were cultured in McCoy's media and 10% fetal bovine serum. When in log phase growth, 4×10^3 cells/well were plated into 96 well microtiter plates and incubated at 37° C. in […] /5% CO2 for 24 hours to allow cell attachment. Compounds were added to the top row of wells, serially diluted (4 fold dilutions) and incubated for an additional 72 hours. The number of viable cells in each well was then quantitated as previously described^2 by adding 0.05 mg/ml final concentration tetrazolium stain (XTT) in the presence of 0.005 mM final concentration phenazine methosulfate. After incubation at room temperature for 3 hours to allow color development, optical density values were measured using a Dynatech MR600 plate reader at […]. IC50 values (drug concentration inhibiting cell growth by 50%) were calculated using linear regression analysis of the optical density readings. Triplicate determinations on separate 96 well plates were done for each drug on each cell line tested.
# P388 murine leukemia = P388 murine leukemia models, ip and iv implanted (summary); type: in vivo, murine (CDF1 mice)
# From the text: (§2) The P388 tumor was maintained in ascitic form in DBA/2 mice. Experimental tumor models used CDF^1 mice implanted via the intraperitoneal or intravenous route with 1×10^6 leukemia cells on day 0 and dosed with drugs according to the indicated route and schedule. Mice were weighed on day 0 and on day 5 or 6. Weight loss of 20% or greater was an indicator of drug toxicity. Each dose group consisted of 6 mice with 10 mice in the untreated control group. The dosing schedule was Q1DX1;1. Death checks were performed daily and the median life span of each group determined. […] Experiments were terminated on or about day 30.
# [2] = test system: iv implanted P388 leukemia; test: Antitumor activity against iv implanted P388 leukemia; type: in vivo, murine (CDF1 mice)
# From the text: as §2
# [3] = test system: A2780/DDP drug resistant cell line; test: In vitro cytotoxicity assay (XTT), A2780/DDP; type: cell-based, human
# Description: as §1
# [4] = test system: HCT116/VP35 drug resistant cell line; test: In vitro cytotoxicity assay (XTT), HCT116/VP35; type: cell-based, human
# Description: as §1
# [5] = test system: sc implanted B16 melanoma; test: Antitumor activity against sc implanted B16 melanoma; type: in vivo, murine (BDF1 mice); conditions: for % T/C / Av. wgt. change / Med. surv. time / No. of mice alive on d 5: iv
# Description: The B-16 murine melanoma was maintained as a subcutaneous growing tumor in C57BL/6 mice. Experimental tumor models used BDF^1 mice implanted with a 25 mg tumor fragment implanted subcutaneously via trochar on day 0. Kedarcidin chromophore was administered iv on a Q1DX1;1 schedule. Mice were weighed on day 0 and on day 9.
# Stability in solution = type: physicochemical
# [6] = test system: HCT116/VM46 drug resistant cell line; test: In vitro cytotoxicity assay (XTT), HCT116/VM46; type: cell-based, human
# Description: as §1
# [7] = test system: several human tumor cell lines; test: In vitro cytotoxicity assay, several human tumor cell lines (summary); type: cell-based
# From the text: as §1, with “The cell lines used to evaluate in vitro cytotoxic potency include the human colon adenocarcinoma HCT116 drug sensitive line, HCT 116/VP35 and HCT116/VM46 daughter drug resistant cell lines that have low Topoisomerase II and elevated P-170 glycoprotein levels^1; respectively, and the human ovarian carcinoma A2780 drug sensitive and the A2780/DDP daughter drug resistant cell line. The A2780/DDP” for “The A2780/DDP”, “density readings. […]” for “density readings. Triplicate determinations on separate 96 well plates were done for each drug on each cell line tested.”
structure (smiles),measurement,setting,value
COc1c(OC(C)C)cc2cc(O)c(C(=O)N[C@@H]3CC(=O)OC[C@@H](O[C@H]4C[C@H](O)[C@H](N(C)C)[C@H](C)O4)/C4=C/C#C[C@@H]5O[C@]56C(=C[C@H](Oc5ccc3nc5Cl)[C@@H]6O[C@H]3C[C@@](C)(O)[C@@H](O)[C@H](C)O3)C#C4)cc2c1OC [Kedarcidin chromophore],IC50,"[1]; A2780, 72 h, VP-16 values: mean of triplicate determinations from last 6 experiments",0.2 ng/mL
same,fold more potent than VP-16,[1]; VP-16 sensitive cell line (A2780),285 fold
same,efficacy and potency compared to kedarcidin,P388 murine leukemia; P388 model,"as efficacious as, and slightly more potent than, kedarcidin; also recorded: as active as, and slightly more potent than, kedarcidin"
same,antitumor activity in P388 models,"P388 murine leukemia; ip, ip or iv, iv model",both potent and efficacious; also recorded: significant antitumor activity; also recorded: in vivo antitumor activity
same,% T/C,"[2]; Exp. 8305, 0.125 mg/kg/dose",186%
same,Av. wgt. change,"[2]; Exp. 8305, 0.125 mg/kg/dose",-0.3 g
same,Med. surv. time,"[2]; Exp. 8305, 0.125 mg/kg/dose",13.0
same,No. of mice alive on d 5,"[2]; Exp. 8305, 0.125 mg/kg/dose",6/6
same,% T/C,"[2]; Exp. 8305, 0.25 mg/kg/dose",214%
same,Av. wgt. change,"[2]; Exp. 8305, 0.25 mg/kg/dose",-0.8 g
same,Med. surv. time,"[2]; Exp. 8305, 0.25 mg/kg/dose",15.0
same,No. of mice alive on d 5,"[2]; Exp. 8305, 0.25 mg/kg/dose",6/6
same,% T/C,"[2]; Exp. 8305, 0.5 mg/kg/dose",107%
same,Av. wgt. change,"[2]; Exp. 8305, 0.5 mg/kg/dose",-2.9 g
same,Med. surv. time,"[2]; Exp. 8305, 0.5 mg/kg/dose",7.5
same,No. of mice alive on d 5,"[2]; Exp. 8305, 0.5 mg/kg/dose",6/6
same,% T/C,"[2]; Exp. 8305, 1 mg/kg/dose",TOX
same,Med. surv. time,"[2]; Exp. 8305, 1 mg/kg/dose",TOX
same,No. of mice alive on d 5,"[2]; Exp. 8305, 1 mg/kg/dose",0/6
same,% T/C,"[2]; Exp. 8305, 2 mg/kg/dose",TOX
same,Med. surv. time,"[2]; Exp. 8305, 2 mg/kg/dose",TOX
same,No. of mice alive on d 5,"[2]; Exp. 8305, 2 mg/kg/dose",0/6
same,% T/C,"[2]; Exp. 8305, 4 mg/kg/dose",TOX
same,Med. surv. time,"[2]; Exp. 8305, 4 mg/kg/dose",TOX
same,No. of mice alive on d 5,"[2]; Exp. 8305, 4 mg/kg/dose",0/6
same,optimal dose,"[2]; Exp. 8305, iv one day after tumor implant",0.25 mg/kg/inj
same,% T/C,"[2]; Exp. 8328, 0.125 mg/kg/dose",186%
same,Av. wgt. change,"[2]; Exp. 8328, 0.125 mg/kg/dose",-2.5 g
same,Med. surv. time,"[2]; Exp. 8328, 0.125 mg/kg/dose",13.0
same,No. of mice alive on d 5,"[2]; Exp. 8328, 0.125 mg/kg/dose",6/6
same,% T/C,"[2]; Exp. 8328, 0.25 mg/kg/dose",100%
same,Av. wgt. change,"[2]; Exp. 8328, 0.25 mg/kg/dose",-2.4 g
same,Med. surv. time,"[2]; Exp. 8328, 0.25 mg/kg/dose",7.0
same,No. of mice alive on d 5,"[2]; Exp. 8328, 0.25 mg/kg/dose",6/6
same,% T/C,"[2]; Exp. 8328, 0.5 mg/kg/dose",TOX
same,Med. surv. time,"[2]; Exp. 8328, 0.5 mg/kg/dose",TOX
same,No. of mice alive on d 5,"[2]; Exp. 8328, 0.5 mg/kg/dose",0/6
same,% T/C,"[2]; Exp. 8328, 1.0 mg/kg/dose",TOX
same,Med. surv. time,"[2]; Exp. 8328, 1.0 mg/kg/dose",TOX
same,No. of mice alive on d 5,"[2]; Exp. 8328, 1.0 mg/kg/dose",0/6
same,optimal dose,"[2]; Exp. 8328, iv, Q1DX1;1",0.125 mg/kg/inj
same,fold less potent on the resistant cell line compared to the sensitive cell line,"[3]; A2780/DDP vs A2780, 4320 min",about 6.6 fold
same,IC50,"[3]; A2780/DDP, 72 h, VP-16 values: mean of triplicate determinations from last 6 experiments",1.3 ng/mL
same,cross-resistance with VP-16,[4]; HCT116/VP35,not cross-resistant
same,IC50,"[4]; HCT116/VP35, 72 h, VP-16 values: mean of triplicate determinations from last 6 experiments",0.3 ng/mL
same,activity by the lifespan criterion,[5]; Exp. 796,active by the lifespan criterion
same,activity by the tumor growth delay criterion,[5]; Exp. 796,Neither kedarcidin chromophore or kedarcidin were active
same,optimum dose,"[5]; Exp. 796, iv one day after tumor implant",0.062 mg/kg/inj
same,% T/C,"[5]; Exp. 796, 0.062 mg/kg/dose",164%
same,Av. wgt. change,"[5]; Exp. 796, 0.062 mg/kg/dose",1.1 g
same,Med. surv. time,"[5]; Exp. 796, 0.062 mg/kg/dose",41.0
same,No. of mice alive on d 5,"[5]; Exp. 796, 0.062 mg/kg/dose",8/8
same,% T/C,"[5]; Exp. 796, 0.125 mg/kg/dose",126%
same,Av. wgt. change,"[5]; Exp. 796, 0.125 mg/kg/dose",1.1 g
same,Med. surv. time,"[5]; Exp. 796, 0.125 mg/kg/dose",31.5
same,No. of mice alive on d 5,"[5]; Exp. 796, 0.125 mg/kg/dose",8/8
same,% T/C,"[5]; Exp. 796, 0.25 mg/kg/dose",TOX
same,Av. wgt. change,"[5]; Exp. 796, 0.25 mg/kg/dose",-1.0 g
same,Med. surv. time,"[5]; Exp. 796, 0.25 mg/kg/dose",TOX
same,No. of mice alive on d 5,"[5]; Exp. 796, 0.25 mg/kg/dose",2/8
same,% T/C,"[5]; Exp. 796, 0.5 mg/kg/dose",TOX
same,Med. surv. time,"[5]; Exp. 796, 0.5 mg/kg/dose",TOX
same,No. of mice alive on d 5,"[5]; Exp. 796, 0.5 mg/kg/dose",0/8
same,activity and potency compared to kedarcidin,"[5]; conclusion, compared directly","as active as, and slightly more potent than, kedarcidin"
same,antitumor activity by lifespan criterion,"[5]; sc implanted B16, conclusion",significant antitumor activity; also recorded: in vivo antitumor activity
same,Stability,Stability in solution,Very unstable
same,Decomposition in solution,"Stability in solution; in solution with benzene, methanol, chloroform and DMSO",Decomposes within hours
same,cross-resistance with VP-16,[6]; HCT116/VM46,not cross-resistant
same,IC50,"[6]; HCT116/VM46, 72 h, VP-16 values: mean of triplicate determinations from last 6 experiments",0.3 ng/mL
same,ability to inhibit cell growth,[7]; compared to VP-16,extremely potent
same,antitumor in vitro activity,[7]; several human tumor cell lines,potent antitumor in vitro activity
